Measured values: US20220242850A1, “PHTHALAZIN-1-ONE DERIVATIVES USEFUL AS GRK2 INHIBITORS” (Janssen Pharmaceutica NV, priority 2019, published 2022)
Values joined by “and” are separate entries in the source; they are usually repeats but may differ in a detail not shown here. Identical values can stand only once.

target: T1, GRK2 (Homo sapiens, UniProt P25098); assay: hGRK2 LANCE Ultra In Vitro Assay; format: biochemical; conditions: hGRK2 LANCE Ultra Assay IC50, 10 nM GRK2; ATP 30 or 600 μM (not stated which)
T1 sequence (P25098 1-689): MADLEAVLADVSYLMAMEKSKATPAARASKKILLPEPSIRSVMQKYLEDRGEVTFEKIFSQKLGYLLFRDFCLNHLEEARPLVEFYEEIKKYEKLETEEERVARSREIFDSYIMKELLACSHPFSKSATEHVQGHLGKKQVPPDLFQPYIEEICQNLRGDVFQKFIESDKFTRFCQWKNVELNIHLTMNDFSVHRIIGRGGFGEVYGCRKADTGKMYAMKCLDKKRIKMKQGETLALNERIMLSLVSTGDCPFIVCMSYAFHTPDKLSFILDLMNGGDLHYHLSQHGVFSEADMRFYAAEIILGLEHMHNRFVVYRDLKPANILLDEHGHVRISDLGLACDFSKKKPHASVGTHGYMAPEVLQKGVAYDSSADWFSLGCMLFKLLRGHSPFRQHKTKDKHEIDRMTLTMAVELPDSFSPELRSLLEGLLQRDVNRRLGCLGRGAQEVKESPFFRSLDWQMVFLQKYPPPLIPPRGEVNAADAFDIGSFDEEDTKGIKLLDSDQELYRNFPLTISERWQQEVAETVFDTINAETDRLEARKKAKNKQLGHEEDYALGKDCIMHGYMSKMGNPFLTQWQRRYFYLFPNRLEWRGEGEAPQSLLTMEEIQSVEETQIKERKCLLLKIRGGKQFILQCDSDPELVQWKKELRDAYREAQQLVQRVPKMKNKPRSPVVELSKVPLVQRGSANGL
Description: G-protein coupled receptor kinases (GR Kinases) desensitize activated G-protein coupled receptors (GPCRs), by phosphorylation of cytoplasmic loops or carboxyl-terminal tails of GPCRs. GRK2 is one of the 6 different GR kinases and is implicated in heart failure and diabetes.
This assay is sensitive and requires as low as 10 nM enzyme, in a total volume of 10 μL. In addition, the ATP concentration can be varied over a broad range, without interfering with the assay or changing the assay condition. […] Testing inhibitors routinely at both high and low ATP concentrations also enables identification of potential non-ATP competitive inhibitors.
Paroxetine was used as the reference compound in this assay.
Test compounds were dissolved in DMSO at 1 mM and were 3-fold serial diluted. The compound DMSO solutions were then added (100 nL) into a plate well using an acoustic dispenser. To each well was then added 20 nM GRK2 (5 μL) in assay buffer (20 mM HEPES, pH 7.5, 10 mM MgCl2, 0.001% Tween-20®). The plate was sealed and centrifuged at 1000 rpm for 1 min. The plate and wells containing a mixture of GRK2 and test compound were incubated at ambient temperature for 30 min (prior to initializing the enzymatic reaction).
Enzyme reactions were initiated by the addition of 4.9 μL Substrates/Eu-Ab mix to each well. […] Final concentrations of reagents in the assays were as follows: 20 mM HEPES, pH 7.5; 10 mM MgCl2; 0.001% Tween-2® (w/v), 30 or 600 μM ATP; 200 nM ULight-peptide; 4 nM Eu-Ab; 10 nM GRK2; and 1% DMSO.
The plates were sealed and centrifuged at 1000 rpm for 1 min. For reactions at low ATP concentration (30 μM), reaction mixtures were incubated at ambient temperature for 120 min. For reactions at high ATP concentration (600 μM), reaction mixtures were incubated at ambient temperature for 60 min.
The enzyme reactions were quenched by addition of 10 μL of 12 mM EDTA in 1× LANCE detection solution to each well. The plates were then incubated at ambient temperature for 30 min.
The raw HTRF data were converted to % active as follows:
% active=(sample−NC)/(PC−NC)*100
where NC is the mean of negative control (reactions without GRK2), and PC is the mean of positive control (reactions with GRK2 but without inhibitor). IC50 values were determined from a 4-parameter fit, using the following equation:
(§1) Y=Bottom+(Top−Bottom)/(1+10^(Log IC50-X)*Hill slope)),
(§2) where X=log10 of the compound concentration.

Compared with `COc1cccc(C(C)n2ncc3ccc(-c4cn[nH]c4)cc3c2=O)c1` (single isomer, unassigned) [Compound 16, 2-[1-(3-Methoxyphenyl)ethyl]-7-(1H-pyrazol4-yl)phthalazin-1-one], `O=C(NC1CC1)c1cccc(Cn2ncc3ccc(-c4cn[nH]c4)cc3c2=O)c1` [Compound 7, N-Cyclopropyl-3-[[1-oxo-7-(1H-pyrazol-4-yl)phthalazin-2-yl]methyl]benzamide] is 8.9-fold lower in IC50: 89 nM for the first, 10 nM for the second. The second is the more potent here.

Compared with `COc1cccc(C(C)n2ncc3ccc(-c4cn[nH]c4)cc3c2=O)c1` (single isomer, unassigned) [Compound 17, 2-[1-(3-Methoxyphenyl)ethyl]-7-(1H-pyrazol-4-yl)phthalazin-1-one], `C#CCCNC(=O)c1cccc(Cn2ncc3ccc(-c4cn[nH]c4)cc3c2=O)c1` [Compound 4, N-But-3-ynyl-3-[[1-oxo-7-(1H-pyrazol-4-yl)phthalazin-2-yl]methyl]benzamide] is 310-fold lower in IC50: 1700 nM for the first, 5.5 nM for the second. The second is the more potent here.

`COc1cccc(Cl)c1CNC(=O)c1cccc(Cn2ncc3ccc(-c4cn[nH]c4)cc3c2=O)c1` [Compound 1, N-[(2-Chloro-6-methoxy-phenyl)methyl]-3-[[1-oxo-7-(1H-pyrazol-4-yl)phthalazin-2-yl]methyl]benzamide] and `Cc1cccc(Cl)c1CNC(=O)c1cccc(Cn2ncc3ccc(-c4cn[nH]c4)cc3c2=O)c1` [Compound 2, N-[(2-Chloro-6-methyl-phenyl)methyl]-3-[[1-oxo-7-(1H-pyrazol4-yl)phthaiazin-2-yl]methyl]benzamide] cannot be ordered by IC50: under 5 nM for the first, under 5 nM for the second.

`O=C(NC1CC2CCC1C2)c1cccc(Cn2ncc3ccc(-c4cn[nH]c4)cc3c2=O)c1` (stereo not drawn) [Compound 3, N-Norbornan-2-yl-3-[[1-oxo-7-(1H-pyrazol-4-yl)phthalazin-2-yl]methyl]benzamide] and `O=C(NC1CC1)c1cc(F)cc(Cn2ncc3ccc(-c4cn[nH]c4)cc3c2=O)c1` [Compound 5] are within 1.5-fold of each other in IC50: 5 nM for the first, 6.3 nM for the second.

Work on `O=C(COc1cccc(Cn2ncc3ccc(-c4cn[nH]c4)cc3c2=O)c1)N1CCOCC1` [Compound 6, 2-[[3-(2-Morpholino-2-oxo-ethoxy)phenyl]methyl]-7-(1H-pyrazol-4-yl)phthalazin-1-one] yielded an IC50 of 8 nM.

target: T1, GRK2; assay: GRK2 Transcreener Assay; format: biochemical; conditions: 10 nM GRK2, 10 uM ATP, 150 uM peptide substrate
Description: Positive and negative control wells received an equal volume of DMSO. The final DMSO concentration in the assay is 1%.
The plate was placed in centrifuge equipped with a spin-bucket rotor and spun for 1 min at 1000 rpm.
GRK2 enzymatic reactions were initiated with the addition of 2 μL/well of 50 nM GRK2 in assay buffer. Plates were centrifuged for 1 min at 1000 rpm. For negative control wells, the order of reagent addition was reversed: 10 μL/well ADP detection mix (see below) was added first, followed by the addition of 2 μL/well of the GRK2 solution. Reaction mixtures were incubated at ambient temperature for 2 hours.
Following incubation, the reactions were quenched with 10 μL/well of the Transcreener ADP detection mix. […] The plates were then centrifuged for 1 min at 1000 rpm.
Fluorescence polarization values of the reaction mixtures were read on a Safire II plate reader after a 60 min incubation at ambient temperature. Excitation wavelength=590 nm: emission wavelength=650 nm.
The fluorescence polarization data were converted to % activity as follows:
% activity=(sample−NC)/(PC−NC)*100
where NC is the mean of negative control (ADP detection mix added prior to GRK2 addition), and PC is the mean of positive control (GRK2 reaction without inhibitor). IC50 values are determined from a 4-parameter fit, using the following equation:
as §1, §2

First: [2H]C([2H])(Oc1cccc([C@@H](C)n2ncc3ccc(-c4cn[nH]c4)cc3c2=O)c1)C(=O)O (single isomer, unassigned) [Compound 20]
Second: C[C@H](c1cccc(OCC(=O)O)c1)n1ncc2ccc(-c3cn[nH]c3)cc2c1=O (single isomer, unassigned) [Compound 29]
The IC50 of the first is 4-fold higher: 190 nM for the first, 47 nM for the second.

Compared with `[2H]C([2H])(Oc1cccc([C@@H](C)n2ncc3ccc(-c4cn[nH]c4)cc3c2=O)c1)C(=O)OC` (single isomer, unassigned) [Compound 21], `C[C@H](c1cccc(OCCOC2CC2)c1)n1ncc2ccc(-c3cn[nH]c3)cc2c1=O` (single isomer, unassigned) [Compound 30] is 29-fold higher in IC50: 23 nM for the first, 660 nM for the second. The first is the more potent here.

First: C[C@H](c1cccc(OCC(=O)O)c1)n1ncc2ccc(-c3ccnc(N)n3)cc2c1=O (single isomer, unassigned) [Compound 22]
Second: COC(=O)COc1cccc([C@@H](C)n2ncc3ccc(-c4ccnc(N)n4)cc3c2=O)c1 (single isomer, unassigned) [Compound 27]
The IC50 of the first is 5.8-fold higher: 11000 nM for the first, 1900 nM for the second.

Going from `Cc1n[nH]cc1-c1ccc2cnn([C@H](C)c3cccc(OCC(=O)O)c3)c(=O)c2c1` (single isomer, unassigned) [Compound 28] to `Cc1n[nH]cc1-c1ccc2cnn([C@H](C)c3cccc(OCCOC4CC4)c3)c(=O)c2c1` (single isomer, unassigned) [Compound 31], the IC50 rises from 410 nM to 6200 nM (15-fold). The first is the more potent here.

Going from `COc1cccc([C@@H](C)n2ncc3ccc(-c4ccnc(N)n4)cc3c2=O)c1` (single isomer, unassigned) [Compound 33] to `COc1cccc(Cn2ncc3ccc(-c4ccnc(N)n4)cc3c2=O)c1` [Compound 34, 7-(2-Aminopyrimidin-4-yl)-2-[(3-methoxyphenyl)methyl]phthalazin-1-one], the IC50 falls from 7700 nM to 890 nM (8.7-fold).

First: O=C(O)Cc1cccc(Cn2ncc3ccc(-c4cn[nH]c4)cc3c2=O)c1 [Compound 23, 2-[3-[[1-oxo-7-(1H-pyrazol-4-yl)phthalazin-2-yl]methyl]phenyl]acetic acid]
Second: COC(=O)Cc1cccc(Cn2ncc3ccc(-c4cn[nH]c4)cc3c2=O)c1 [Compound 25, Methyl 2-[3-[[1-oxo-7-(1H-pyrazol-4-yl)phthalazin-2-yl]methyl]phenyl]acetate]
The IC50 of the first is 5.9-fold higher: 1300 nM for the first, 220 nM for the second. The second is the more potent here.

Compared with `COC(=O)CCNC(=O)c1cccc(Cn2ncc3ccc(-c4cn[nH]c4)cc3c2=O)c1` [Compound 24, Methyl 3-[[3-[[1-oxo-7-(1H-pyrazol-4-yl)phthalazin-2-yl]methyl]benzoyl]amino]propanoate], `O=C(O)CCNC(=O)c1cccc(Cn2ncc3ccc(-c4cn[nH]c4)cc3c2=O)c1` [Compound 26, 3-[[3-[[1-Oxo-7-(1H-pyrazol-4-yl)phthalazin-2-yl]methyl]benzoyl]amino]propanoic acid] is 70-fold higher in IC50: 7.4 nM for the first, 520 nM for the second. The first is the more potent here.

Compared with `CCC(c1cccc(OC)c1)n1ncc2ccc(-c3cn[nH]c3)cc2c1=O` (stereo not drawn) [Compound 32, 2-[1-(3-Methoxyphenyl)propyl]-7-(1H-pyrazol-4-yl)phthalazin-1-one], `COC(=O)COc1cccc(Cn2ncc3ccc(-c4cn[nH]c4)cc3c2=O)c1` [Compound 37, Methyl 2-[3-[[1-oxo-7-(1H-pyrazol-4-yl)phthalazin-2-yl]methyl]phenoxy]acetate] is lower in IC50: 1600 nM for the first, under 5 nM for the second. The second is the more potent here.

Going from `COc1cccc(Cn2ncc3ccc(-c4ccoc4)cc3c2=O)c1` [Compound 36, 7-(3-Furyl)-2-[(3-methoxyphenyl)methyl]phthalazin-1-one] to `O=c1c2cc(-c3cn[nH]c3)ccc2cnn1Cc1cccc(OC(F)(F)F)c1` [Compound 39, 7-(1H-Pyrazol-4-yl)-2-[[3-(trifluoromethoxy)phenyl]methyl]phthalazin-1-one], the IC50 rises from 900 nM to over 50000 nM. The first is the more potent here.

First: O=C(O)COc1cccc(Cn2ncc3ccc(-c4cn[nH]c4)cc3c2=O)c1 [Compound 38, 2-[3-[[1-Oxo-7-(1H-pyrazol-4-yl)phthalazin-2-yl]methyl]phenoxy]acetic acid]
Second: O=c1c2cc(-c3cn[nH]c3)ccc2cnn1Cc1ccccc1 [Compound 40, 2-Benzyl-7-(1H-pyrazol-4-yl)phthalazin-1-one]
The IC50 of the first is 38-fold lower: 8 nM for the first, 300 nM for the second.

For `COc1cccc(Cn2ncc3ccc(-c4c[nH]nc4C)cc3c2=O)c1` [Compound 35, 2-[(3-Methoxyphenyl)methyl]-7-(3-methyl-1H-pyrazol-4-yl)phthalazin-1-one], the IC50 was 140 nM and 120 nM.
